Test results from PubChem BioAssay AID2060512 (Molecular Pharmacology Branch, DTP, NCI, 2025).
pIC50: −log10 of the molar value.

Tested on: 186277-243-T-J2-PDC complex spheroid viability
Test: Anticancer human tumor 186277-243-T-J2-PDC patient-derived colon adenocarcinoma cell line growth inhibition [GQUAD]
Details: for pIC50: curve of first compound; for viability, T/C: stronger effect = lower value
Method in brief: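 Multi-cell-type spheroids of tumor cells with HUVEC and mesenchymal stem cells, treated with drug combinations. Concentrations descend in half-log steps from near clinical Cmax, or from 10 microM where Cmax is unknown; viability read-out.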
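Note: spheroids exposed to drugs for 7 days.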
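Throughout, for viability, T/C: 100% = DMSO vehicle control viability.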

COc1ncnc(C2CC2)c1-c1ncc2cnn(Cc3ccc(-c4nc(C(F)(F)F)cn4C(C)C)cc3)c2n1 + Cc1cnc(CNC(=O)c2c(=O)c3ccc(N4CCCN(C)CC4)nc3n3c2sc2ccccc23)cn1
pIC50 (second compound 0.0316 µM): < 5.00
pIC50 (second compound 0.1 µM): < 5.00
pIC50 (second compound 0.316 µM): < 5.00
pIC50 (second compound 1 µM): > 7.50
pIC50 (second compound 3.16 µM): > 7.50
pIC50 (second compound 10 µM): > 7.50
viability, T/C (second compound 0.0316 µM, first compound 0.0316 µM): 90%
viability, T/C (second compound 0.0316 µM, first compound 0.1 µM): 73.9%
viability, T/C (second compound 0.0316 µM, first compound 0.316 µM): 86.6%
viability, T/C (second compound 0.0316 µM, first compound 1 µM): 67%
viability, T/C (second compound 0.0316 µM, first compound 3.16 µM): 79.1%
viability, T/C (second compound 0.0316 µM, first compound 10 µM): 76.1%
viability, T/C (second compound 0.1 µM, first compound 0.0316 µM): 67.3%
viability, T/C (second compound 0.1 µM, first compound 0.1 µM): 55.1%
viability, T/C (second compound 0.1 µM, first compound 0.316 µM): 62.3%
viability, T/C (second compound 0.1 µM, first compound 1 µM): 51.5%
viability, T/C (second compound 0.1 µM, first compound 3.16 µM): 69%
viability, T/C (second compound 0.1 µM, first compound 10 µM): 62.1%
viability, T/C (second compound 0.316 µM, first compound 0.0316 µM): 55.5%
viability, T/C (second compound 0.316 µM, first compound 0.1 µM): 57.2%
viability, T/C (second compound 0.316 µM, first compound 0.316 µM): 61.6%
viability, T/C (second compound 0.316 µM, first compound 1 µM): 53.1%
viability, T/C (second compound 0.316 µM, first compound 3.16 µM): 62.6%
viability, T/C (second compound 0.316 µM, first compound 10 µM): 48.5%
viability, T/C (second compound 1 µM, first compound 0.0316 µM): 42.4%
viability, T/C (second compound 1 µM, first compound 0.1 µM): 39.3%
viability, T/C (second compound 1 µM, first compound 0.316 µM): 38.2%
viability, T/C (second compound 1 µM, first compound 1 µM): 36.1%
viability, T/C (second compound 1 µM, first compound 3.16 µM): 48.1%
viability, T/C (second compound 1 µM, first compound 10 µM): 33.2%
viability, T/C (second compound 3.16 µM, first compound 0.0316 µM): 27.5%
viability, T/C (second compound 3.16 µM, first compound 0.1 µM): 39.1%
viability, T/C (second compound 3.16 µM, first compound 0.316 µM): 43.6%
viability, T/C (second compound 3.16 µM, first compound 1 µM): 42.6%
viability, T/C (second compound 3.16 µM, first compound 3.16 µM): 42.5%
viability, T/C (second compound 3.16 µM, first compound 10 µM): 37.4%
viability, T/C (second compound 10 µM, first compound 0.0316 µM): 29.4%
viability, T/C (second compound 10 µM, first compound 0.1 µM): 41.9%
viability, T/C (second compound 10 µM, first compound 0.316 µM): 34.3%
viability, T/C (second compound 10 µM, first compound 1 µM): 32.9%
viability, T/C (second compound 10 µM, first compound 3.16 µM): 37.3%
viability, T/C (second compound 10 µM, first compound 10 µM): 32.8%
